According to patent US20090105251A1, “Renin inhibitors” (priority 2007, published 2009):

Each molecule was assayed against T1, Recombinant human renin (Homo sapiens, UniProt P00797) (assay: In vitro enzymatic activity assay of renin inhibitors (fluorogenic peptide substrate)). Conditions: recombinant human renin 3 nM, 1 μM substrate QXL520/HiLyteFluo488 peptide, pH 7.4, 37° C., fluorescence; values given as ranges; read-out: IC50 of Exemplified Compounds Against Renin, IC50.
T1 construct: isolate the active form (residues 67-406); made in house
T1 sequence (P00797 67-406): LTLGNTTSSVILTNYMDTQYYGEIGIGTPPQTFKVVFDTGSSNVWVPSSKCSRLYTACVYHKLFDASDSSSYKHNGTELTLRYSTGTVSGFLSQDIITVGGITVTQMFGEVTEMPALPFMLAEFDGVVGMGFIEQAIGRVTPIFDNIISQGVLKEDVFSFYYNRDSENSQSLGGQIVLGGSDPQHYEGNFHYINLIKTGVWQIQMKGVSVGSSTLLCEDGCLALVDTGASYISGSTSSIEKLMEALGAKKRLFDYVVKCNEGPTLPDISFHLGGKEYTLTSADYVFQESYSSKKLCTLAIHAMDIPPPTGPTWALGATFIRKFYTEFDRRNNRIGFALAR
Assay type: biochemical
Excerpt: Test compounds in varying concentrations may be reacted with recombinant human renin in the presence of substrate, e.g., QXL520-γ-Abu-Ile-His-Pro-Phe-His-Leu-Val-Ile-His-Thr-Lys (HiLyteFluo488)-Arg-OH (Anaspec, San Jose, Calif.). The reaction can be followed kinetically using fluorescence (excitation λ=485 nm; emission λ=538 nm). Inhibition constants (IC50) may be calculated by non-linear curve fitting of the compound concentrations and fluorescence intensities to the standard IC50 equation.
Solutions of test compounds in varying concentrations (≦2 mM final concentration) are prepared in dimethyl sulfoxide (DMSO) and then diluted into assay buffer comprising 50 mM Hepes, 1 mM EDTA, 1 mM DTT, 0.1 mg/ml BSA, 0.01% Brij35, pH 7.4. Alternatively, the assay can be performed with a high BSA concentration, wherein the buffer contains an additional 2% BSA.
Recombinant human renin (3 nM final concentration) is added to the dilutions and pre-incubated with the compounds for 10 minutes at 37° C. As described in Examples A-C above, human renin can be obtained by expressing preprorenin (residue 1-406) in mammalian cells, treating the prorenin (residues 24-406) contained in the culture supernatant with trypsin, and isolate the active form (residues 67-406). After pre-incubation, the reaction is initiated with 1 μM of substrate QXL520-γ-Abu-Ile-His-Pro-Phe-His-Leu-Val-Ile-His-Thr-Lys (HiLyteFluo488)-Arg-OH (Anaspec, San Jose, Calif.). The final DMSO in the assay is 5%. The total volume of the reaction mixture is 20 μL, which can be placed on Greiner 384-well small volume plates.
Renin activity may be determined via fluorescence (excitation λ=485 nm; emission λ=538 nm), e.g., on a Molecular Devices SPECTROmax GEMINI XPS. The fluorescence intensity is determined upon the addition of substrate and determined again after incubation at 37° C. for one hour. The fluorescence intensity of a blank (no inhibition) using vehicle alone is also determined. Renin activity is linearly proportional to the change in fluorescence observed (final−initial).
The percent inhibition of renin at a given compound concentration is defined as:
100%×[1−(Fcompound/Fblank)]
where Fcompound is the observed fluorescence at a given concentration of test compound and Fblank is the observed fluorescence in the presence of vehicle alone.
The pIC50 value (negative log of the molar concentration of the compound that produces 50% inhibition) of a test compound is calculated by non-linear least squares curve fitting of the equation:
Percent Inhibition=100%/(1+(10^−pIC50/10^log [I]))
to percent inhibition versus compound concentration. The 50% inhibitory concentration (IC50) of a test compound is calculated by raising 10 to the negative pIC50 (10^−pIC50).
`Cc1ccc(-c2ccccc2C(=O)N2CCNC[C@H]2Cc2ccccc2)cc1C` [Example 3, (R)-(2-benzylpiperazin-1-yl)(3′,4′-dimethylbiphenyl-2-yl)methanone] showed an IC50 of under 1000 nM.
Molecule `O=C(c1ncoc1-c1ccccc1)N1CCNC[C@H]1Cc1ccccc1` [Example 7, (R)-(2-benzylpiperazin-1-yl)(5-phenyloxazol-4-yl)methanone] has an IC50 of 1000 to 50000 nM.
`O=C(c1cc(F)ccc1-c1ccccc1Oc1ccccc1)N1CCNC[C@H]1Cc1ccccc1` [Example 16, ((R)-2-benzylpiperazin-1-yl)(4-fluoro-2′-phenoxybiphenyl-2-yl)methanone] showed an IC50 of 1000 to 50000 nM.
`O=C(c1ccccc1OCc1ccccc1)N1CCNC[C@H]1Cc1ccccc1` [Example 23, (R)-(2-(benzyloxy)phenyl)(2-benzylpiperazin-1-yl)methanone] showed an IC50 of 1000 to 50000 nM.
`N#Cc1ccccc1Sc1ccccc1C(=O)N1CCNC[C@H]1Cc1ccccc1` [Example 20, (R)-2-(2-(2-benzylpiperazine-1-carbonyl)phenylthio)benzonitrile] was tested, and the IC50 was 1000 to 50000 nM.
Work on `O=C(c1ccc(-c2ccccc2Oc2ccccc2)s1)N1CCNC[C@H]1Cc1ccccc1` [Example 44, (R)-(2-benzylpiperazin-1-yl)(5-(2-phenoxyphenyl)thiophen-2-yl)methanone] yielded an IC50 of 1000 to 50000 nM.
Work on `O=C(C1CC1c1ccccc1)N1CCNCC1Cc1ccccc1` (stereo in doubt) [Example 2, ((S)-2-benzylpiperazin-1-yl)(2-phenylcyclopropyl)methanone] yielded an IC50 of over 100000 nM.
Work on `O=C(c1sccc1-c1cnn(Cc2ccccc2)c1)N1CCNC[C@H]1Cc1ccccc1` [Example 18, (R)-(3-(1-benzyl-1H-pyrazol-4-yl)thiophen-2-yl)(2-benzylpiperazin-1-yl)methanone] yielded an IC50 of 1000 to 50000 nM.
`CC(=O)NCCc1ccccc1Oc1ccccc1-c1ccsc1C(=O)N1CCNC[C@H]1Cc1ccccc1` [Example 39, N-(2-(2-(2-((R)-2-benzylpiperazine-1-carbonyl)thiophen-3-yl)phenoxy)phenethyl)acetamide] showed an IC50 of under 1000 nM.
In the case of `O=C(c1ccccc1-c1ccc(F)cc1)N1CCNC[C@H]1Cc1ccccc1` [Example 31, (R)-(2-benzylpiperazin-1-yl)(4′-fluorobiphenyl-2-yl)methanone], the IC50 is reported as 1000 to 50000 nM.
`Cn1cc(-c2ccccc2Oc2ccccc2)c(C(=O)N2CCNC[C@H]2Cc2ccccc2)n1` [Example 17, ((R)-2-benzylpiperazin-1-yl)(1-methyl-4-(2-phenoxyphenyl)-1H-pyrazol-3-yl)methanone] was tested, and the IC50 was under 1000 nM.
Molecule `CC1(C)Cc2cccc(C(=O)N3CCNC[C@H]3Cc3ccccc3)c2O1` [Example 35, (R)-(2-benzylpiperazin-1-yl)(2,2-dimethyl-2,3-dihydrobenzofuran-7-yl)methanone] has an IC50 of 1000 to 50000 nM.
`CCn1nc(C)c(-c2ccccc2Oc2ccccc2)c1C(=O)N1CCNC[C@H]1Cc1ccccc1` [Example 14, ((R)-2-benzylpiperazin-1-yl)(1-ethyl-3-methyl-4-(2-phenoxyphenyl)-1H-pyrazol-5-yl)methanone] gave an IC50 of 1000 to 50000 nM.
`O=C(c1ccccc1)c1ccccc1C(=O)N1CCNC[C@H]1Cc1ccccc1` [Example 22, (R)-(2-benzoylphenyl)(2-benzylpiperazin-1-yl)methanone] showed an IC50 of 1000 to 50000 nM.
